Measured values as given in patent US8784633B2, “Automatic positioning and sensing microelectrode arrays” (priority 2007, dated 2014).

System: cortical neurons
Assay: Multi-site recording of extracellular spontaneous electrophysiological activity of cortical neuronal networks on APSMEA
Type: cell-based, rat
Procedure: FIG. 3 is a process flow diagram 300 of a process for controlling movement of target cells into a predetermined location using negative DEP forces. At 302, target cells (e.g., neuronal cells) in suspension are introduced onto a APSMEA device 100. The target cells are prepared according to institutional guidelines for care and use of animals. For example, to obtain neuronal cells, cortical neurons are excised from 18-day rat embryos and dissociated by trituration after digestion with papain (20 U/ml). The neurons are then resuspended in Neurobasal medium with B27 supplement and 500 μM glutamine. The medium initially added to new cultures are also supplemented with 25 μM glutamate and 25 μM β-mercaptoethanol. With four different concentrations, i.e., 1×10^5 cells/ml, 2×10^5 cells/ml, 5×10^5 cells/ml and 1×10^6 cells/ml, neurons are seeded on the APSMEA device 100 after coating with poly-L-lysine (50 μg/ml) and laminin (10 μg/ml).
FIG. 6a-c represent results of multi-site recordings of extracellular spontaneous electrophysiological activities from cortical neuronal networks (14 DIV) for control (no DEP forces applied) and manipulated (with DEP forces applied) cells at the seeding cell concentration of 5×10^5 cells/ml. Multi-site electrophysiological recordings in this and other implementations can be performed with the APSMEA device connected with a commercial multi-channel amplifier and filtering stage (Cyberkinetics, Salt Lake City, Utah). Measurements are carried out in 14 days old cortical cultures at 37° C., allowing the signals from the recording electrodes 122 amplified (×5000), band-pass filtered (250-7500 Hz), and sampled at 30 kHz/channel on 25 channels simultaneously. Using ±3 times of the standard deviation of the noise level as the threshold value for each channel, electrophysiological activities are detected on-line or off-line. NMDA (5 μM) and APV (5 μM) are also applied in the culture medium, and their related electrophysiological activities before and after any drug (e.g., chemical compounds) administration are both recorded for 10 min. […]

[1] = 5 μM in culture medium, cortical neurons 14 DIV, 10 min recording, n=4 separate APSMEAs

## TTX
  effect on recorded extracellular action potentials (electrical activities): inhibited

## CN[C@H](CC(=O)O)C(=O)O [NMDA]
[1]
  induced activity level relative to controls: increase three times more than that of controls

## N[C@@H](CCCP(=O)(O)O)C(=O)O [APV]
[1]
  electrical activity level (sum of spikes over all active sites) compared with no drug added control: 7.8±7.5 % of control
